The text below walks through data of patent US10077261B2, “Imidazolin-5-one derivative useful as FASN inhibitors for the treatment of cancer” (Janssen Pharmaceutica NV, priority 2012, dated 2018).

The assay has as its target T1, hFASN enzyme (full length) (Homo sapiens, UniProt P49327).
T1 construct: 10 μL hFASN enzyme (full length, 300 ng, purified in house); made in house
Briefly: Fatty Acid Synthase (FASN) inhibition scintillation proximity assay. Type of assay: biochemical. The settings on record: for inhibition at 10 µM: read-out: Human FASN % inhibition @ 10 μM, 10 μM test compound; for IC50: read-out: Human FASN pIC50 (converted). In outline:
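Full-length in-house purified enzyme (300 ng) was tested in 100 mM KH2PO4 pH 7.5, 1 mM DTT with ³H-acetyl-CoA and malonyl-CoA as substrates; compounds ranged 0.01–30 μM. Reactions were stopped with streptavidin imaging beads, read by LEADseeker at 610 nm, and fitted to a 4-parameter logistic curve.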
In general terms: Scintillation proximity formats need no separation of bound from free tracer.

T1 sequence (P49327 whole entry): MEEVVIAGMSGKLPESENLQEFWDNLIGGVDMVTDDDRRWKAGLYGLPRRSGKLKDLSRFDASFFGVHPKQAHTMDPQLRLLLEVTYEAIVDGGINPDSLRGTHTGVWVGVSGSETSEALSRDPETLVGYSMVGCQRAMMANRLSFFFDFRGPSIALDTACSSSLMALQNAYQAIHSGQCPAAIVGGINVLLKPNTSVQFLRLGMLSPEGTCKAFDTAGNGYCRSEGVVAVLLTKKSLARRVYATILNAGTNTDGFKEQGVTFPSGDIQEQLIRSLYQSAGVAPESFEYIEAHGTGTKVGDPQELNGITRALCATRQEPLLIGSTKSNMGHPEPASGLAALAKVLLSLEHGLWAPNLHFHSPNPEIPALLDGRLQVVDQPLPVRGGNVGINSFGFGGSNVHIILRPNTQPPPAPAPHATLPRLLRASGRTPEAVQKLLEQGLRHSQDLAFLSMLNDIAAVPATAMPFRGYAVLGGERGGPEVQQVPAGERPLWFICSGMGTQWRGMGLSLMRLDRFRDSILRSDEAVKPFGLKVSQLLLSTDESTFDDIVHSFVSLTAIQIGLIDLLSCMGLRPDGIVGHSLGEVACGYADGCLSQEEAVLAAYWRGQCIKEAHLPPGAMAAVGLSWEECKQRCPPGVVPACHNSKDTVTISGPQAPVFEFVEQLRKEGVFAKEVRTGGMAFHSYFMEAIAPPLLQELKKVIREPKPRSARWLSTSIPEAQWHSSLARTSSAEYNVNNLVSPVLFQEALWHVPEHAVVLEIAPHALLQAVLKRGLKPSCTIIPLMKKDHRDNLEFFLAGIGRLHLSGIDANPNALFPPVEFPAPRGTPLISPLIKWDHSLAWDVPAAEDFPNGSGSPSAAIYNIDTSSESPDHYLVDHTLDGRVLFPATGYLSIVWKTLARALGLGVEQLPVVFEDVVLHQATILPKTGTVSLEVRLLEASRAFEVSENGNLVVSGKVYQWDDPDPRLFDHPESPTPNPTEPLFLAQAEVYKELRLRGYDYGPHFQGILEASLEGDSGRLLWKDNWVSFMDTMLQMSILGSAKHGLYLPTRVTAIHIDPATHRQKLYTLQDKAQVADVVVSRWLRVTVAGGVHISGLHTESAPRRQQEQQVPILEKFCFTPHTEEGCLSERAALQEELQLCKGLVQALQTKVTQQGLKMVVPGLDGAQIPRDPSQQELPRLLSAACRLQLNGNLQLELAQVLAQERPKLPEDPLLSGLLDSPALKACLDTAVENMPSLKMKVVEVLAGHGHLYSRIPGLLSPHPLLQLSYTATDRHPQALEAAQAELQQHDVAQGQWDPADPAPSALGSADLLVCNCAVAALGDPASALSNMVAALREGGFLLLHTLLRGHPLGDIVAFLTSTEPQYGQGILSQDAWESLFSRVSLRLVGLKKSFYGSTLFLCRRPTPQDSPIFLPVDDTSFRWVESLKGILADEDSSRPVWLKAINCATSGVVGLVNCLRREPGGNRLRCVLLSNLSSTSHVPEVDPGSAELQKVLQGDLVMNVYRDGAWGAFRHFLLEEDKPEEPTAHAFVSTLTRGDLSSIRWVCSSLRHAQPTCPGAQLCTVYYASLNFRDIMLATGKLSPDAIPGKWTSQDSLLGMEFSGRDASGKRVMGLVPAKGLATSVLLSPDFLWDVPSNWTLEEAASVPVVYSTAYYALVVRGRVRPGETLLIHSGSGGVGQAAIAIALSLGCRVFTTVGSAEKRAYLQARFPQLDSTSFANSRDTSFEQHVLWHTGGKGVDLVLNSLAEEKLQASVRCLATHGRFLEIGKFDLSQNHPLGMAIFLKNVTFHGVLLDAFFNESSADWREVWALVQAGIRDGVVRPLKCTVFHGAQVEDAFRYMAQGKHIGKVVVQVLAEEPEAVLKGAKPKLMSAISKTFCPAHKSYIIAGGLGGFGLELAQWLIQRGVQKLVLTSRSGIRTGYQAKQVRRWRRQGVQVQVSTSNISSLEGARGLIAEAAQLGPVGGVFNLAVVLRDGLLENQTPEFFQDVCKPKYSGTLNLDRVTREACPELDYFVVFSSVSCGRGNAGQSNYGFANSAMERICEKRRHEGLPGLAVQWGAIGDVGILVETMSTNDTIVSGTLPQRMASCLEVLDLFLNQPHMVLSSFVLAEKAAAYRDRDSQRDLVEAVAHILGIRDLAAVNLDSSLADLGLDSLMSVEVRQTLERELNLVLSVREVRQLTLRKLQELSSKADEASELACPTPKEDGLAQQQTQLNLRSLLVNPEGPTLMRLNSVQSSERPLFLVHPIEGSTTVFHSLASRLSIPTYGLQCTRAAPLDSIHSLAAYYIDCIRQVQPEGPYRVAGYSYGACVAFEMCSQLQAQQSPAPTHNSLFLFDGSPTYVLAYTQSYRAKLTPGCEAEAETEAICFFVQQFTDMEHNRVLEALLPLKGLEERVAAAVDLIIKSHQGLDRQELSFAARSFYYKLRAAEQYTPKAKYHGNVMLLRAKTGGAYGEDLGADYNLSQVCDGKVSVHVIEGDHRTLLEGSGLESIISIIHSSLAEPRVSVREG

As to `Cn1ncc2cc(-c3ccc(C4=NC5(CCOCC5)C(=O)N4CC4CN(C(=O)C5CC5)C4)cc3)ccc21` [compound 706, 3-{[1-(Cyclopropylcarbonyl)azetidin-3-yl]methyl}-2-[4-(1-methyl-1H-indazol-5-yl)phenyl]-8-oxa-1,3-diazaspiro[4.5]dec-1-en-4-one], the inhibition (commonly the share of the control response that was lost under treatment) at 10 µM came out at 65% and the IC50 is roughly 2.34 µM.

With `CC(O)C(=O)N1CC(CN2C(=O)C3(CCOCC3)N=C2c2ccc(-c3ccc4c(cnn4C)c3)cc2)C1` (centres unmarked) [compound 707, 3-{[1-(2-Hydroxypropanoyl)azetidin-3-yl]methyl}-2-[4-(1-methyl-1H-indazol-5-yl)phenyl]-8-oxa-1,3-diazaspiro[4.5]dec-1-en-4-one], the inhibition at 10 µM stood at 55% and the IC50 is 6.46 µM.

Regarding `Cn1ncc2cc(-c3ccc(C4=NC5(CCOCC5)C(=O)N4CC4CN(C(=O)[C@H]5CCCO5)C4)cc3)ccc21` [compound 708, 2-[4-(1-Methyl-1H-indazol-5-yl)phenyl]-3-({1-[(2R)-tetrahydro-furan-2-ylcarbonyl]azetidin-3-yl}methyl)-8-oxa-1,3-diazaspiro[4.5]dec-1-en-4-one], the inhibition at 10 µM was 76% and the IC50 was 1.86 µM.

As for `Cn1ncc2cc(-c3ccc(C4=NC5(CCOCC5)C(=O)N4CC4CN(C(=O)N5CCCC5)C4)cc3)ccc21` [compound 709, 2-[4-(1-Methyl-1H-indazol-5-yl)phenyl]-3-{[1-(pyrrolidin-1-ylcarbonyl)azetidin-3-yl]methyl}-8-oxa-1,3-diazaspiro[4.5]dec-1-en-4-one], the inhibition at 10 µM was 64% and the IC50 was 4.07 µM.

On to `Cn1cc(-c2ccc(-c3ccc(C4=NC5(CCOC5)C(=O)N4CC4CN(C(=O)C5CC5)C4)cc3)cc2)cn1` (centres unmarked) [compound 710, 3-{[1-(Cyclopropylcarbonyl)azetidin-3-yl]methyl}-2-[4′-(1-methyl-1H-pyrazol-4-yl)biphenyl-4-yl]-7-oxa-1,3-diazaspiro[4.4]non-1-en-4-one], for which the inhibition at 10 µM worked out at 66% and the IC50 was 2.82 µM.

For `CC(O)C(=O)N1CC(CN2C(=O)C3(CCOC3)N=C2c2ccc(-c3ccc(-c4cnn(C)c4)cc3)cc2)C1` (centres unmarked) [compound 711, 3-{[1-(2-Hydroxypropanoyl)azetidin-3-yl]methyl}-2-[4′-(1-methyl-1H-pyrazol-4-yl)biphenyl-4-yl]-7-oxa-1,3-diazaspiro[4.4]non-1-en-4-one], the inhibition at 10 µM is 60% and the IC50 was 6.03 µM.

Turning to `Cn1cc(-c2ccc(-c3ccc(C4=NC5(CCOC5)C(=O)N4CC4CN(C(=O)[C@H]5CCCO5)C4)cc3)cc2)cn1` (stereo partly drawn) [compound 712, 2-[4′-(1-Methyl-1H-pyrazol-4-yl)biphenyl-4-yl]-3-({1-[(2R)-tetrahydro-furan-2-ylcarbonyl]azetidin-3-yl}methyl)-7-oxa-1,3-diazaspiro[4.4]non-1-en-4-one], the inhibition at 10 µM came to 69% and the IC50 is 2.45 µM.

In the case of `Cn1cc(-c2ccc(-c3ccc(C4=NC5(CCOC5)C(=O)N4CC4CN(C(=O)N5CCCC5)C4)cc3)cc2)cn1` (centres unmarked) [compound 713, 2-[4′-(1-Methyl-1H-pyrazol-4-yl)biphenyl-4-yl]-3-{[1-(pyrrolidin-1-ylcarbonyl)azetidin-3-yl]methyl}-7-oxa-1,3-diazaspiro[4.4]non-1-en-4-one], the inhibition at 10 µM was determined as 59% and the IC50 was roughly 6.76 µM.

With `O=C(C1CC1)N1CC(CN2C(=O)C3(CCOC3)N=C2c2ccc(-c3ccc4occc4c3)cc2)C1` (centres unmarked) [compound 718, 2-[4-(1-Benzofuran-5-yl)phenyl]-3-{[1-(cyclopropylcarbonyl)azetidin-3-yl]methyl}-7-oxa-1,3-diazaspiro[4.4]non-1-en-4-one], the inhibition at 10 µM turned out to be 72% and the IC50 is roughly 2.4 µM.

For `CC(O)C(=O)N1CC(CN2C(=O)C3(CCOC3)N=C2c2ccc(-c3ccc4occc4c3)cc2)C1` (centres unmarked) [compound 719, 2-[4-(1-Benzofuran-5-yl)phenyl]-3-{[1-(2-hydroxypropanoyl)azetidin-3-yl]methyl}-7-oxa-1,3-diazaspiro[4.4]non-1-en-4-one], the inhibition at 10 µM came to 67% and the IC50 is 3.89 µM.
